Experimental data as given in publication PMC11488110 (Theranostics, 2024).

Tests used:
BV-2 microglial cells [1] = experiment: HO-1 expression and intracellular ROS in BV-2 microglia; format: cell-based, mouse
Procedure: Total proteins were extracted from cells or mouse brain tissues using radioimmunoprecipitation assay (RIPA) buffer (Sigma-Aldrich) containing a protease and phosphatase inhibitor cocktail (Roche Diagnostics). After 30 min of incubation with RIPA buffer on ice, lysates were centrifuged at 15800 g and 4 °C for 20 min and supernatants were collected. Protein concentrations were determined using Pierce® BCA Protein Assay Kit (Thermo Fisher Scientific). Protein samples (10 μg) were separated on 10% SDS-PAGE gels and transferred to polyvinylidene fluoride (PVDF) membranes (Millipore). The membranes were blocked in 5% skim milk (Millipore) in TBST (10 mM Tris-HCl, pH 7.5, 150 mM NaCl, and 0.1% Tween® 20) for 1 h at room temperature and incubated overnight at 4 °C with primary antibodies. […] The western blot bands were analyzed using ImageJ software (NIH) and β-Actin or glyceraldehyde 3-phosphate dehydrogenase (GAPDH) were used as a loading control. […]
Intracellular ROS accumulation was monitored using the cell-permeable fluorescent probe DCFH-DA (Sigma-Aldrich). […] After washing with phosphate-buffered saline (PBS), cells were imaged with an ImageXpress Pico (Molecular Devices) and fluorescence intensity was quantified using the ImageJ software (NIH).

[2] = system: C57BL/6N mice with scopolamine-induced cognitive impairment; experiment: Scopolamine-induced memory impairment mouse model; format: in vivo
hPPARα = biological target: T1, hPPARα (Homo sapiens, UniProt Q07869); experiment: In vitro co-transfection (PPRE-luciferase) assay in CV-1 cells, hPPARα; format: cell-based; details: 24 h, read-out: Potency (EC50) hPPARα
T1 sequence (Q07869 1-468): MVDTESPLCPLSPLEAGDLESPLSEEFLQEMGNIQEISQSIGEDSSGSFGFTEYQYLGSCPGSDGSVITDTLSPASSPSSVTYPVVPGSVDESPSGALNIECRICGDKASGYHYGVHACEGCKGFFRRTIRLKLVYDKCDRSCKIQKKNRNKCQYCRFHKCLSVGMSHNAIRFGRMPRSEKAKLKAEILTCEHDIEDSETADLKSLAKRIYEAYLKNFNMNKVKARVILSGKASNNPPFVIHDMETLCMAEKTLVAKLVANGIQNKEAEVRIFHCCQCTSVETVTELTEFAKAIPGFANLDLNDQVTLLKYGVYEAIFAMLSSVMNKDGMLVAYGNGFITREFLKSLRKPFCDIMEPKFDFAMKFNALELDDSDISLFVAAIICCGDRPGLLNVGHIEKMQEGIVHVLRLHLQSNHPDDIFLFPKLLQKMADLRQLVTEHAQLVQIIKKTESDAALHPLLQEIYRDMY

[3] = Metabolic stability assay in liver microsomes; format: in vitro ADME, mouse; details: 1 μM, 30 min
Procedure: (§1) The metabolic stability assay was performed by incubation of human and selected animal liver microsomes (dog, rat, and mouse) with the test compound at a final concentration of 1 μM, in the presence of 0.5 mg/ml microsomal protein and NADPH-regeneration system, in a total volume of 100 μL phosphate buffer 100 mM (pH 7.4) at 37 °C. The incubation was started by introducing the NADPH-regeneration system and terminated by adding 40 μL of ice-cold acetonitrile at 0- and 30 min. Precipitated proteins were removed by centrifugation at 10,000 g and 4 °C for 5 min. Aliquots of the supernatant were injected onto an LC-MS/MS system. Incubations terminated prior to addition of the NADPH-regeneration system (time point, 0 min) were used as standards, defined as 100%. Percent of the parent compound remaining was calculated by comparing peak areas.
(§2) Ta b l e S2 . CYP inhibition, microsomal stability, and hERG in hibition of 5a .
(§3) CYP inhibitiona Microsomal stabilityb
(§4) ( % of c ont rol ac ti vit y) (% of remaining compound) hERG inhibitionc (IC50, μ M) […]
(§5) aCytochrome P450 (CYP450) enzyme activity was measured by incubating CYP450 enzyme isotype-specific substrates and liver microsomes in the presence of the test compound (10 μM) for 15 min. […]

hERG channel = biological target: T2, hERG channel (Homo sapiens, UniProt Q12809); experiment: biochemical; details: fluorescence polarization binding assay
T2 construct: purchased Invitrogen PV5365
T2 sequence (Q12809 whole entry): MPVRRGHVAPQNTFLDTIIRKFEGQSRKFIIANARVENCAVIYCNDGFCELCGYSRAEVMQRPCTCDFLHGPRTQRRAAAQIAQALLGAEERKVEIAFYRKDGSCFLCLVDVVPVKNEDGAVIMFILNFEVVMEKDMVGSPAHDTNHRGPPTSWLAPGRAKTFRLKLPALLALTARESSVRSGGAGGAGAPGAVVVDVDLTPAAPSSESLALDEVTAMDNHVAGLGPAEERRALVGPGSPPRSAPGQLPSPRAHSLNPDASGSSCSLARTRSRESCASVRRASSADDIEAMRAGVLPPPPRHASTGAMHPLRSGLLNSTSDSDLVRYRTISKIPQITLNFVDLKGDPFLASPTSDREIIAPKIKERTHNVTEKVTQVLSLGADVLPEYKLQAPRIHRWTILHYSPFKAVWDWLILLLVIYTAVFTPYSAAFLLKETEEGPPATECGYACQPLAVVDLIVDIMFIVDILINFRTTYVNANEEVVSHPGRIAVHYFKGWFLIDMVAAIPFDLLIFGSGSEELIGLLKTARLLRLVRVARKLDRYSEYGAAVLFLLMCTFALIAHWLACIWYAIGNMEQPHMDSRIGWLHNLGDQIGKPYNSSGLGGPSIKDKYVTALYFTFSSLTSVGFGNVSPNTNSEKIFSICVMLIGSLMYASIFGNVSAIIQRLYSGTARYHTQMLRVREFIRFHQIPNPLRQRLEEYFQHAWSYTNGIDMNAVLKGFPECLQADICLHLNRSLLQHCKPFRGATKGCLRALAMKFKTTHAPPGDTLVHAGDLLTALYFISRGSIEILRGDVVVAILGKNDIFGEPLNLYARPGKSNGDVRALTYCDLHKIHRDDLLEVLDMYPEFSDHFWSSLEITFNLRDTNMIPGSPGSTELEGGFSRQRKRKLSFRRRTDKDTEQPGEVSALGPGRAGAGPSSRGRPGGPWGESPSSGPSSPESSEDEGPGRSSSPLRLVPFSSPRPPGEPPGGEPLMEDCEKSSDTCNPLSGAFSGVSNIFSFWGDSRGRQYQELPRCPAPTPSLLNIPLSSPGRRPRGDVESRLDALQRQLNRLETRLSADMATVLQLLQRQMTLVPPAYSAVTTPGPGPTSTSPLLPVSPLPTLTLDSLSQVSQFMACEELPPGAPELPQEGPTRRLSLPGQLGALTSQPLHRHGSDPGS
Procedure: An hERG channel binding assay was performed using the Predictor hERG Fluorescence Polarization Assay Kit (PV5365, Invitrogen). […] Fluorescence intensity (excitation at 530 nm, emission at 590 nm) was measured using a multi-mode microplate reader Synergy Neo (Biotek). […]
as §2, §3, §4
aCytochrome P450 (CYP450) enzyme activity was measured by incubating CYP450 enzyme isotype-specific substrates and liver microsomes in the presence of the test compound (10 μM) for 15 min. Data are expressed as percent of CYP enzyme activity relative to that of t he v ehicle-treated control. bThe test compound was incubated with microsomes for 30 min and the percentage of the remaining compound was measured via liquid chromatography- tandem mass spectrometry (LC-MS/MS). cHuman Ether-à -go -go -related gene (hERG) channel binding assay was performed using a predictor hERG fluorescence polarization assay (Invitrogen); IC50 values were calculated with non-linear regression fit with four parameters. a- cThe results of these three assays were obtained through the in vitro ADME/Tox study service of KMEDIhub, a contract research organization (CRO). The reported measurements are the mean of […]

primary mouse astrocytes = experiment: Cytotoxicity assay (EZ-Cytox) in primary mouse astrocytes; format: cell-based; details: up to 30 μM, 24 h
[4] = Metabolic stability assay in liver microsomes; format: in vitro ADME, rat; details: 1 μM, 30 min
Procedure: as §1, §2, §3, §4, §5

[5] = system: C57BL/6N mice with LPS-induced neuroinflammation; experiment: LPS-induced neuroinflammation mouse model; format: in vivo
[6] = Metabolic stability assay in liver microsomes; format: in vitro ADME, dog; details: 1 μM, 30 min
Procedure: as §1, §2, §3, §4, §5

BV-2 microglial cells [7] = experiment: LPS-induced inflammatory responses in BV-2 microglia; format: cell-based, mouse
[8] = 30 mg/kg/day p.o. 5 days before scopolamine 1 mg/kg i.p.
[9] = 30 mg/kg p.o. 10 days, LPS 0.3 mg/kg 7 days
[10] = 30 mg/kg/day p.o., LPS 0.3 mg/kg/day i.p.

For `Cc1cc(SCc2[se]c(-c3ccc(C(F)(F)F)cc3)nc2C)ccc1OCC(=O)O` [Compound 5a, {2-Methyl-4-[4-methyl-2-(4-trifluoromethyl-phenyl)-selenazol-5-yl-methylsulfanyl]-phenoxy}-acetic acid], the “Intracellular ROS production (DCFH-DA)” value (BV-2 microglial cells [1]; BV-2, 5 μM 24 h, H2O2 200 μM 20 min) was “suppressed ROS production”, the HO-1 expression (BV-2 microglial cells [1]; BV-2, 48 h) was “increased the expression of HO-1” and the Y-maze spontaneous alternation [2, 8] was “prevented the decrease in alternation percentage”. For the same compound, the “Y-maze total number of arm entries” value [2, 8] was “without inducing any changes”, the “Passive avoidance step-through latency” value ([2]; 30 mg/kg/day p.o., scopolamine 1 mg/kg i.p.) was “mitigated this effect” and the “Memory in Y-maze, passive avoidance and Morris water maze” value ([2]; post-administration, 10 mg/kg p.o.) was “significantly restored the memory impairment”. The “Memory in Y-maze, passive avoidance and Morris water maze” value ([2]; post-administration, 30 mg/kg p.o.) was “maximum efficacy”, the “Cognitive improvement compared with GW501516” value ([2]; post-administration, same dose 30 mg/kg) was “superior in vivo efficacy” and the EC50 (hPPARα) was > 10 µM. The “Microsomal stability, Mouse (% of remaining compound)” value [3] was 76.1 % of remaining compound, the “hERG inhibition (IC50)” value (hERG channel) was “low inhibitory effects” and the IC50 (hERG channel; read-out: hERG inhibition (IC50)) was 9 µM. The “Cytotoxicity in primary astrocytes” value (primary mouse astrocytes) was “no cytotoxicity”, the “Microsomal stability, Rat (% of remaining compound)” value [4] was 73.3 % of remaining compound and the “CD86 expression in IBA1-positive microglia” value [5, 9] was “significantly reduced the expression”. For the same compound, the “GFAP and IBA1 immunoreactivity, hippocampus and cortex” value [5, 9] was “inhibited”, the “Plasma TNF-α and IL-6” value [5, 9] was “prevented the LPS-induced increases” and the “Spleen size and weight” value [5, 9] was “reduced the size and weight of spleens”. For the same compound, the “Open-field motor activity (traveled distance, immobility time)” value [5, 10] was “improved motor activity”, the “Open-field time spent in the center” value [5, 10] was “spent more time in the center” and the “Passive avoidance step-through latency” value [5, 10] was “significantly prevented this decrease”. For the same compound, the “Y-maze number of arm entries” value [5, 10] was “increased the number of arm entries”, the Y-maze spontaneous alternation [5, 10] was “higher percentage of spontaneous alternations” and the “Microsomal stability, Dog (% of remaining compound)” value [6] was 91.3 % of remaining compound. The “LPS-induced mRNA and protein levels of iNOS, TNF-α and IL-6” value (BV-2 microglial cells [7]; BV-2, LPS 0.2 μg/mL) was “reduced the LPS-induced increases”, the “LPS-induced NO production (nitrite)” value (BV-2 microglial cells [7]; pretreatment 3 h, LPS 0.2 μg/mL 24 h) was “suppressed” and the “LPS-induced phosphorylation of NF-κB p65” value (BV-2 microglial cells [7]; pretreatment 6 h, LPS 1 h) was “prevented the increase”.
